Like-named read-outs stand apart in the source and are kept apart here.
Columns and labels:
[1] = Nitric oxide (NO) free radical scavenging assay (Griess reagent); details: mean ± SD; 1-50 μM
Experimental: Different concentrations (1, 5, 10, 25 and 50 μM) of the test compounds and quercetin (reference standard) were prepared in DMSO. A mixture of the compound (5 μL), 10 mM sodium nitroprusside (20 μL) and the phosphate buffer (5 μL) were incubated at 25 °C in a 96-well plate. The plate was incubated for 2.5 h at 25 °C followed by the addition of the Griess reagent (1.00 g of sulphanilic acid + 0.10 g naphthylethylene diamine dihydrochloride, 20 μL). The mixtures were allowed to stand for 30 min. […] The IC50 and SD values were calculated using the Graph Pad Prism software.

[2] = target: T1, α-glucosidase type 1 from Saccharomyces cerevisiae (Saccharomyces cerevisiae, UniProt P53341); assay: biochemical; format: biochemical; details: for selectivity index (SI = IC50(α-glucosidase)/IC50(α-amylase)): ratio of α-glucosidase to α-amylase IC50
T1 construct: purchased Merck Life Science (Pty) Ltd. (Sigma-Aldrich) G5003
Experimental: The assays and analyses were performed in triplicates following a method described in a previous study. […] A solution of α-glucosidase type 1 from Saccharomyces cerevisiae (0.48 u/mL, 17 μL), 100 mM phosphate buffer (pH 6.8; 50 μL) and the test sample in DMSO (17 μL) were incubated at 37 °C for 10 min. This pre-incubation was followed by addition of 2 mM p-nitrophenyl-α-D-glucopyranoside (PNP-G, 17 μL) to each of the wells containing reaction mixtures to initiate the reaction. The plate was then incubated for 30 min. at 37 °C. The five absorbance readings were recorded at a wavelength of 405 nm for each triplicate run using a Varioskan flash microplate spectrophotometer (Thermo Scientific, Waltham, MA, USA). The average values obtained from the readings were used to determine the IC50 and standard deviation values. The values were calculated by the nonlinear regression analysis using the Graph Pad Prism version 8.0.1 software (San Diego, CA, USA) and expressed as the mean SD of three distinct experiments.

MCF-7 cells = assay: Cytotoxicity, CellTiter-Blue cell viability assay; format: cell-based, human; details: 24 h treatment, 1-100 μM
Experimental: (§1) The cells were maintained in Dulbecco’s Modified Eagle’s Medium (DMEM, Gibco, Carlsbad, CA, USA) supplemented with 10% fetal bovine serum (FBS) and 1% penicillin/streptomycin in culture flasks and incubated at 37 °C in 5% CO2. When the cells reached 85% confluency, they were detached using 2% trypsin. The cell count was performed using a hand-held automated cell counter (Scapter 3.0™, Merck, Burlington, MA, USA) and then seeded at 1 × 10^5 cells/well. The well-plates were incubated overnight to allow cell attachment. After 24 h, treatments were administered with different concentrations (1, 5, 10, 25, 50 and 100 μM) of the test compounds and the positive controls (quercetin and nintedanib). The mixtures were incubated for another 24 h and then 20 μL of the CellTiter-Blue (Cytek Biosciences, San Diago, CA, USA) solution (5 mg/mL) was added to all the wells. Fluorescence was measured at 560 nm excitation/590 nm emission using an Elisa microplate reader (ThermoFisher Scientific, Vario SkanFlash, Vantaa, Finland). The cell viability of the triplicate results was calculated using the GraphPad Prism software (Version 8, GraphPad Software Inc., San Diego, CA, USA) to fit the nonlinear regression dose–response curves to obtain the IC50 and standard deviation values.

[3] = Metal ion chelation assay (UV-Vis spectrophotometry); format: physicochemical; details: 60 μM in methanol with CuCl2, RT
Experimental: A solution of the test compound in methanol alone (60 μM, final concentration) or in the presence of CuCl2 or ZnCl2 was stirred at RT for 30 min. The absorption spectra were recorded at RT at wavelengths ranging from 200 to 600 nm using a Shimadzu UV/Vis spectrometer, model: UV-1800 240V (Shimadzu Europa GmbH, Albert-Han Strasse 6-10, 47269 Duisburg, Germany).

Vero cells = assay: Cytotoxicity, CellTiter-Blue cell viability assay; format: cell-based, African green monkey (Cercopithecus aethiops); details: 24 h treatment, 1-100 μM
Experimental: as §1

A549 cells = assay: Cytotoxicity, CellTiter-Blue cell viability assay; format: cell-based, human; details: 24 h treatment, 1-100 μM
Experimental: as §1

α-amylase = target: T2, α-amylase (Homo sapiens, UniProt P04746); assay: In vitro α-amylase inhibitory assay (α-Amylase Inhibitor Screening Kit); format: biochemical; details: mean ± SD, triplicate; 1-50 μM
T2 construct: purchased Abcam ab283391
T2 sequence (P04746 16-511): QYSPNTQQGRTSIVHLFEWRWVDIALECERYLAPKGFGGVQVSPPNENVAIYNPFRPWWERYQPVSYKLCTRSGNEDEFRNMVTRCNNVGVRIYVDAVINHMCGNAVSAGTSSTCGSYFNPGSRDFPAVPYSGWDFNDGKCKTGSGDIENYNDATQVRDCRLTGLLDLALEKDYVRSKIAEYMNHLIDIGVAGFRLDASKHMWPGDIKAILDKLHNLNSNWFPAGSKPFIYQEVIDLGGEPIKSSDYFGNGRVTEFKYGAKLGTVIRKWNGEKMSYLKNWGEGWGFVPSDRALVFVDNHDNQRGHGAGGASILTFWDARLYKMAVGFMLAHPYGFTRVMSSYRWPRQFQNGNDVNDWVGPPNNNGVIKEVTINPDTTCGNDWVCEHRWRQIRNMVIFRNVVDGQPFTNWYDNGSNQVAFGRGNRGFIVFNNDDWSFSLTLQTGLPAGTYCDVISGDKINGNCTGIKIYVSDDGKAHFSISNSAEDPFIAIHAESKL
Experimental: The mixtures were incubated at 37 °C for 10 min. and the substrate prepared in the same fashion as the enzyme was added to the mixtures to initiate the reaction. The plate was then incubated at RT for 25 min. in the dark. Five different absorbance readings were recorded for each triplicate run at a wavelength of 405 nm using a Varioskan flash microplate spectrophotometer (Thermo Scientific, Waltham, MA, USA). The IC50 and SD values were calculated using the Graph Pad Prism software.

[4] = mean ± SD, triplicate, 1-50 μM, read-out: IC50 α-Glucosidase
[5] = Chlorocebus sabaeus, Vero, 24 h

T1 sequence (P53341 whole entry): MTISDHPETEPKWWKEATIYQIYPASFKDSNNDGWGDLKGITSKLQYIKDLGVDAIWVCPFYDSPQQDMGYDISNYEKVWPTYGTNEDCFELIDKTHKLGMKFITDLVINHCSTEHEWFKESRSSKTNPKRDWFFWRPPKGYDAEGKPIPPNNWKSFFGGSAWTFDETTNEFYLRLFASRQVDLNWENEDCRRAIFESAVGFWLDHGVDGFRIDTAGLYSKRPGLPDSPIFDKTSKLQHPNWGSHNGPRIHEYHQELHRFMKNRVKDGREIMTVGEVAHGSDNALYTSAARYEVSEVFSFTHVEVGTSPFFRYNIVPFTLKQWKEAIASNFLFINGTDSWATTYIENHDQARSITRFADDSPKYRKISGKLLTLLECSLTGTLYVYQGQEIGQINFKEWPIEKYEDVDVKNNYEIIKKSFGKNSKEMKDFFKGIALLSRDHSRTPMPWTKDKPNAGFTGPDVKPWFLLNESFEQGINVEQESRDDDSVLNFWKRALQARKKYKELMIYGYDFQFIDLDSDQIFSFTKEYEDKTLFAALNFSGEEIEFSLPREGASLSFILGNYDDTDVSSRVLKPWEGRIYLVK

Row | IC50 [2, 4] | SMILES | IC50 [1] | melting point | IC50 [2] | IC50 (MCF-7 cells; Homo sapiens, MCF7, 24 h) | IC50 (Vero cells; [5]) | IC50 (A549 cells; Homo sapiens, A549, 24 h) | IC50 (α-amylase) | further results
1 |  | COc1ccc(/C=C/C(=O)c2c(O)c(Br)c(OC)c(Br)c2OC)cc1 [2d, (E)-1-(3,5-Dibromo-2-hydroxy-4,6-dimethoxyphenyl)-3-(4-methoxyphenyl)prop-2-en-1-one] | 9.5 ± 0.004 µM | 155 to 158 °C | 16.3 ± 0.02 µM |  |  |  |  | 
2 | 0.8 ± 0.002 µM | COc1c(Br)c(OC)c2c(=O)cc(-c3ccc(Cl)cc3)oc2c1Br [3c, 6,8-Dibromo-2-(4-chlorophenyl)-5,7-dimethoxy-4H-chromen-4-ONE] | 4.7 ± 0.02 µM | 280 to 283 °C |  | 6.96 ± 0.66 µM |  |  |  | IC50 (MCF-7 cells): 5.1 ± 0.61 µM; coordination of Cu^2+ (change of UV-Vis maxima) [3]: some coordination of 3c to the copper ion
3 | 10.9 ± 0.007 µM | COc1c(Br)c(OC)c2c(=O)cc(-c3ccc(C)cc3)oc2c1Br [3e, 6,8-Dibromo-5,7-dimethoxy-2-(p-tolyl)-4H-chromen-4-one] | 13.3 ± 0.08 µM | 205 to 206 °C |  | 6.96 ± 0.66 µM | 9.45 ± 0.79 µM | 6.42 ± 0.79 µM | 25.4 ± 0.04 µM | 
4 |  | O=c1c(O)c(-c2ccc(O)c(O)c2)oc2cc(O)cc(O)c12 [Quercetin, reference compound] | 4.8 ± 0.01 µM |  |  |  |  |  |  | IC50 (Vero cells; Chlorocebus sabaeus, Vero): 45.6 ± 1.8 µM; IC50 (MCF-7 cells; Homo sapiens, MCF7): 35.4 ± 1.78 µM; IC50 (A549 cells; Homo sapiens, A549): 35.4 ± 1.78 µM
5 | 19.5 ± 0.005 µM | COc1c(Br)c(OC)c2c(=O)cc(-c3ccc(F)cc3)oc2c1Br [3b, 6,8-Dibromo-2-(4-fluorophenyl)-5,7-dimethoxy-4H-chromen-4-one] | 5.4 ± 0.002 µM | 288 to 289 °C |  |  |  |  |  | 
6 |  | COc1c(Br)c(O)c(C(=O)/C=C/c2ccc(C(C)C)cc2)c(OC)c1Br [2f, (E)-1-(3,5-Dibromo-2-hydroxy-4,6-dimethoxyphenyl)-3-(4-isopropylphenyl)prop-2-en-1-one] | 17.4 ± 0.015 µM | 128 to 130 °C | 23.6 ± 0.1 µM |  |  |  |  | 
7 |  | COc1c(Br)c(OC)c2c(=O)cc(-c3ccccc3)oc2c1Br [3a, 6,8-Dibromo-5,7-dimethoxy-2-phenyl-4H-chromen-4-one] |  | 216 to 218 °C | 14.2 ± 0.005 µM | 8.5 ± 0.82 µM | 12.4 ± 0.97 µM | 16.2 ± 0.91 µM |  | IC50 (Vero cells): 16.2 ± 0.91 µM; IC50 (A549 cells): 12.4 ± 0.97 µM
8 |  | COc1c(Br)c(O)c(C(=O)/C=C/c2ccc(Cl)cc2)c(OC)c1Br [2c, (E)-1-(3,5-Dibromo-2-hydroxy-4,6-dimethoxyphenyl)-3-(4-chlorophenyl)prop-2-en-1-one] | 28 ± 0.003 µM | 150 to 152 °C | 12.3 ± 0.003 µM | 15.1 ± 0.91 µM | 20.3 ± 1.01 µM | 9.68 ± 0.8 µM | 18 ± 0.06 µM | selectivity index (SI = IC50(α-glucosidase)/IC50(α-amylase)) [2]: 0.68
9 |  | COc1c(Br)c(O)c(C(=O)/C=C/c2ccc(C)cc2)c(OC)c1Br [2e, (E)-1-(3,5-Dibromo-2-hydroxy-4,6-dimethoxyphenyl)-3-(p-tolyl)prop-2-en-1-one] |  | 151 to 152 °C | 27.4 ± 0.02 µM |  |  |  |  | 
10 |  | COc1c(Br)c(O)c(C(=O)/C=C/c2ccccc2)c(OC)c1Br [2a, (E)-1-(3,5-Dibromo-2-hydroxy-4,6-dimethoxyphenyl)-3-phenylprop-2-en-1-one] | 11 ± 0.01 µM | 106 to 108 °C | 14.5 ± 0.01 µM | 4.12 ± 0.55 µM | 6.04 ± 0.54 µM | 7.4 ± 0.67 µM | 7.3 ± 0.11 µM | selectivity index (SI = IC50(α-glucosidase)/IC50(α-amylase)) [2]: 1.99
11 | 15.2 ± 0.002 µM | COc1ccc(-c2cc(=O)c3c(OC)c(Br)c(OC)c(Br)c3o2)cc1 [3d, 6,8-Dibromo-5,7-dimethoxy-2-(4-methoxyphenyl)-4H-chromen-4-one] | 5.3 ± 0.005 µM | 233 to 236 °C |  |  |  |  |  | 
12 |  | COC(=O)c1ccc2c(c1)NC(=O)/C2=C(\Nc1ccc(N(C)C(=O)CN2CCN(C)CC2)cc1)c1ccccc1 [Nintedanib, reference compound] |  |  |  | 0.53 ± 0.11 µM | 0.89 ± 0.18 µM | 0.74 ± 0.15 µM |  | 

Row | SMILES | IC50 [2, 4] | IC50 [1] | melting point | IC50 [2] | IC50 (MCF-7 cells; Homo sapiens, MCF7, 24 h) | IC50 (Vero cells; [5]) | IC50 (A549 cells; Homo sapiens, A549, 24 h) | IC50 (α-amylase) | further results
13 | COc1c(Br)c(OC)c2c(=O)cc(-c3ccc(C(C)C)cc3)oc2c1Br [3f, 6,8-Dibromo-5,7-dimethoxy-2-(4-isopropylphenyl)-4H-chromen-4-one] | 5.6 ± 0.006 µM | 12.1 ± 0.07 µM | 165 to 167 °C |  | 10.7 ± 1.02 µM | 11.7 ± 1.02 µM | 16.1 ± 1.15 µM | 28 ± 0.06 µM | selectivity index (SI = IC50(α-glucosidase)/IC50(α-amylase)) [2]: 0.2
14 | COc1c(Br)c(O)c(C(=O)/C=C/c2ccc(F)cc2)c(OC)c1Br [2b, (E)-1-(3,5-Dibromo-2-hydroxy-4,6-dimethoxyphenyl)-3-(4-fluorophenyl)prop-2-en-1-one] | 7.3 ± 0.004 µM | 6.5 ± 0.005 µM | 132 to 134 °C |  | 12.1 ± 0.72 µM | 25 ± 1.09 µM | 18.7 ± 0.89 µM | 6.5 ± 0.07 µM | selectivity index (SI = IC50(α-glucosidase)/IC50(α-amylase)) [2]: 1.12

From publication PMC11505200, “Exploring the 3,5-Dibromo-4,6-dimethoxychalcones and Their Flavone Derivatives as Dual α-Glucosidase and α-Amylase Inhibitors with Antioxidant and Anticancer Potential” (Antioxidants, 2024)
